Assay results from patent publication US11633411B2, “Methods of treating sepsis using anti-sepsis lipid A (ASLA) based therapeutics” (UNIVERSITY OF MARYLAND, BALTIMORE, priority 2016, dated 2023).

Tests used:
C57BL6 mice = assay: Lethal endotoxic shock mouse model (25 mg/kg E. coli W3110 LPS i.p.); assay type: in vivo; conditions: for survival rate: preliminary experiment; for survival: repeat experiment
Method: FIG. 4. ALSA 468 therapeutically rescues mice from lethal endotoxic shock. Lethal endotoxic shock was induced in 6-8 week old C57BL6 mice by injecting 25 mg/kg of E. coli LPS (strain W3110) i.p. […]
To determine if ASLA 468 is capable of therapeutically rescuing mice that have received a lethal dose of pro-inflammatory Ec LPS, an in vivo mouse model of lethal endotoxin septic shock was used. Medzhitov, R. Nat. Rev. Immunol. 2001, 1, 135-145; Remick et al., Shock 2000, 13, 110. […] These pilot experiments provide a proof-of-principle that molecules found to compete with pro-inflammatory LPS in vitro are also capable of combating symptoms of septic shock in vivo. Future sepsis models to be used in this proposal will account for bacterial clearance after antibiotic treatment, in vivo location and concentration of LPS, and the structural relationship between ASLA and MD2/TLR4 complex that will address some shortcomings of previous anti-sepsis therapeutics, which is the scientific premise of this proposal. Raetz et al., Annu. Rev. Biochem. 2002, 71, 635-700; Raetz et al., J. Lipid Res. 2009, 50 Suppl, S103-108; Needham et al., S. Nature Reviews Microbiology 2013, 11, 467-481; Ernst et al., Science 1999, 286, 1561-1565; Miller et al., Nature Reviews Microbiology 2005, 3, 36-46; Siegemund et al., Nat Immunol 2012, 13, 1031-1033; Rietschel et al., FASEB J. 1994, 8, 217-225; van Lieshout et al., Inflamm. Res. 2014, 63, 927-933; Buras et al., Nat Rev Drug Discov 2005, 4, 854-865.
Experimental Setup: Similarly to the non-lethal endotoxic shock model, in this in vivo model of lethal septic shock 6-week old C57BL6 mice were injected intraperitoneally with either 25 mg/kg E. coli (W3110) LPS, co-administered 25 mg/kg Ec LPS+10 mg/kg BECC468@26, or 25 mg/kg Ec LPS followed by 10 mg/kg BECC468@26 four hours later. Mice were monitored for survival every 12 hours post-injection. n=6 mice for each group, percent survival for each group is graphed.

TLR4 [1] = target: T1, TLR4 (Homo sapiens, UniProt O00206+Q9Y6Y9); assay: NF-κB activation screen in THP-1 Dual reporter cells (SEAP under NFκB promoter); assay type: cell-based; design: host or cells: THP-1 Dual reporter cells
Method: To identify the most successful ASLA candidates to be tested for efficacy in vivo, we will stimulate both human and mouse cell cultures with increasing concentrations (0.01 ng/ml, 0.1 ng/ml, 1 ng/ml, 10 ng/ml, 100 ng/ml) of novel lipid A preparations for 4 and 24 hours. All in vitro assays will be run in biological triplicate to increase the scientific rigor of experiments. Activation of inflammatory pathways will be investigated by stimulating THP-1 cells (ATTC), a human monocytic cell line, followed by multiplex analysis of cytokines in the supernatant minimally including TNF-α, IL-8, and IL-6. We will also screen ASLA molecules using THP-1 Dual (Invitrogen) and HEK293 cells transfected with human or mouse MD2/TLR4 (Invitrogen), which have an easily detectable SEAP transcript under the NF-kB promoter to quickly evaluate the potential for these ASLA molecules to inhibit MyD88-NF-kB activation. To account for authentication of key biological resources, all cell lines were purchased from and verified by either ATCC or Invitrogen within the past year and cells used in experiments have been passaged less than 15 times since purchase. Together, these assays will illustrate a lack of inflammatory activation when cells are stimulated with the ASLA molecules. […]

TLR4 [2] = target: T1, TLR4; assay: Competitive inhibition of pro-inflammatory LPS in THP-1 Dual reporter cells; conditions: Se LPS plus ASLA 470
Method: THP-1 Dual cells (Invitrogen) contain an easily detected secreted alkaline phosphatase (SEAP) under the NFκB promoter. E. coli LPS (circles), ALSA 468 (squares), and E. coli LPS+a constant 10 ng/mL ASLA 468 (triangles) are cultured with THP-1 Dual over a 5-log dilution series, activation of NFκB, as measured by SEAP expression, is pictured.
To investigate the inflammatory properties of BECC synthesized molecules ASLA 468 and 470, THP-1 Dual cells (Invitrogen) were used to screen for NF-κB activation.
Experimental Setup: Reporter cell line THP-1 Duals (Invitrogen) are incubated for 18 hours over a five-log dose range with either Salmonella enterica (Se) LPS alone, BECC molecule alone (467@26, 468@26, 468@37, 469@26, 470@26, 470@37), or increasing doses of Se with a constant dose of BECC molecule (10 ng/mL). THP-1 Dual cells have a SEAP reporter under the NFκB promoter that is easily quantified in the supernatant of cultured cells. After 18 hours of culture supernatant is removed from the cell culture and SEAP is quantified to indicate the level of NFκB activation/inflammation. OD@620 nm can be directly extrapolated to represent relative amounts of NFκB activation. […] Mean±SD of duplicate samples is graphed for each data point.

T1 sequence (O00206 24-839): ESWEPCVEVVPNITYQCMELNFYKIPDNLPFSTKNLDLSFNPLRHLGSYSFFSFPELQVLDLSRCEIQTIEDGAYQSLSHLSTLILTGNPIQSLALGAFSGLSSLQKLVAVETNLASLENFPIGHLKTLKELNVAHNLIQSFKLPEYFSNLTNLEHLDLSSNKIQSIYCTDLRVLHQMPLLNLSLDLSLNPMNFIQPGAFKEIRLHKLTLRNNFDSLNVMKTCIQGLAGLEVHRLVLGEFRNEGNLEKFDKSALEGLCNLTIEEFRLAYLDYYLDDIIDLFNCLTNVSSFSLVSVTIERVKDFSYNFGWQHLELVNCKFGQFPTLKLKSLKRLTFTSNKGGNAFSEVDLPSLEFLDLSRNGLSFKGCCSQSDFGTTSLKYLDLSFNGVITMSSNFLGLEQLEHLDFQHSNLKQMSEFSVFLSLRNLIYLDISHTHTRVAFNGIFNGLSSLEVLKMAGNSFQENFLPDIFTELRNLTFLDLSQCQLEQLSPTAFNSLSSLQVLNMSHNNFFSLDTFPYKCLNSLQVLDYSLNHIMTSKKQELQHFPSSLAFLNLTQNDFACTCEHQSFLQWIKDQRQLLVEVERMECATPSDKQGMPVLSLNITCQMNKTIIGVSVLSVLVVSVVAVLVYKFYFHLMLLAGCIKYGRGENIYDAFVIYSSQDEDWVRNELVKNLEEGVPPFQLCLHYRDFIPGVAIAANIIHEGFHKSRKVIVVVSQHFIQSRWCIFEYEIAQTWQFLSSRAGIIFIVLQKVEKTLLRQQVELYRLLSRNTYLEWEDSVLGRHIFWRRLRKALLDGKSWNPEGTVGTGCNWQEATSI
T1 sequence (Q9Y6Y9 17-160 limits assumed): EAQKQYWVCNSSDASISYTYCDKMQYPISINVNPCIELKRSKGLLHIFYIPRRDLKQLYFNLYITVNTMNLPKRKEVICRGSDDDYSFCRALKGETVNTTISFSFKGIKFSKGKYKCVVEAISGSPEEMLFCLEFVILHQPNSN

Compound	survival rate (C57BL6 mice; 10 mg/kg given 4 hours after 25 mg/kg Ec LPS)	survival rate (C57BL6 mice; 10 mg/kg given simultaneously with 25 mg/kg Ec LPS)	pathogenic symptoms (C57BL6 mice; mice injected with ASLA 468 alone)	survival (C57BL6 mice; treated 8 hours post-induction)	survival (C57BL6 mice; treated 12 hours post-induction)	EC50 (TLR4 [1])	agonist category (full, partial, or weak agonist) for NF-κB activation (TLR4 [1]; five-log dilution series, compared to Ec LPS positive control)	fold increase of the EC50 of Se LPS (TLR4 [2])
CCCCCC/C=C\CCCCCCCC(=O)OC(CCCCCCCCCCC)CC(=O)NC1[C@H](OCC2OC(OP(=O)(O)O)C(NC(=O)CC(O)CCCCCCCCCCC)[C@@H](OC(=O)CC(O)CCCCCCCCCCC)[C@@H]2O)OC(CO)C(O)[C@@H]1OC(=O)CC(CCCCCCCCCCC)OC(=O)CCCCCCCCCCC (some centres unmarked) [ASLA 468]	66.6%	100%	no signs of pathogenic symptoms	100%	66.6%	69.5 nM		
CCCCCC/C=C\CCCCCCCC(=O)OC(CCCCCCCCCCC)CC(=O)NC1[C@H](OCC2OC(OP(=O)(O)O)C(NC(=O)CC(CCCCCCCCCCC)OC(=O)CCCCCCCCCCCCCCC)[C@@H](OC(=O)CC(O)CCCCCCCCCCC)[C@@H]2O)OC(CO)C(O)[C@@H]1OC(=O)CC(CCCCCCCCCCC)OC(=O)CCCCCCCCCCC (some centres unmarked) [ASLA 470]							weak agonists	1.9 fold
